# ChEMBL document CHEMBL5108009, “Positron Emission Tomography (PET) Imaging Tracers for Serotonin Receptors” (J Med Chem, 2022)
# Tests used:
# [1] = target: 5-hydroxytryptamine receptor 1D (Homo sapiens, UniProt P28221); assay: Binding affinity to 5-HT1D receptor (unknown origin) assessed as inhibition constant
# [2] = target: 5-hydroxytryptamine receptor 2B (Homo sapiens, UniProt P41595); assay: Binding affinity to 5-HT2B receptor (unknown origin) assessed as inhibition constant
# [3] = target: T1, 5-hydroxytryptamine receptor 1A (Homo sapiens, UniProt P08908)
# T1 sequence (P08908 whole entry): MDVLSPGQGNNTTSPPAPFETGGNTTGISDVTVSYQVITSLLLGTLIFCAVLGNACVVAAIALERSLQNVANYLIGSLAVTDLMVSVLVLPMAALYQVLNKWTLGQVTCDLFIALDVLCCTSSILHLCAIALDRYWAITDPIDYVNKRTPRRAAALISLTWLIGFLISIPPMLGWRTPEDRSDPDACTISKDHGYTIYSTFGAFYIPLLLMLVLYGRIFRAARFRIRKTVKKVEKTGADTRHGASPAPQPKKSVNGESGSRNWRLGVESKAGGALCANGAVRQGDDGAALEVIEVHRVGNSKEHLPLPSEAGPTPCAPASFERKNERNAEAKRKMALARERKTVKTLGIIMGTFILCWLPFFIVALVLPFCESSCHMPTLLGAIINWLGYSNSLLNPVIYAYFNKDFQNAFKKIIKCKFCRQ
# [4] = target: T2, 5-hydroxytryptamine receptor 1A (Rattus norvegicus, UniProt P19327); assay: Displacement of [3H]-8-OH-DPAT from Sprague-Dawley rat hippocampal membrane 5HT1A receptor incubated for 10 mins by liquid scintillation analysis; format: cell membranes, Hippocampus
# T2 sequence (P19327 whole entry): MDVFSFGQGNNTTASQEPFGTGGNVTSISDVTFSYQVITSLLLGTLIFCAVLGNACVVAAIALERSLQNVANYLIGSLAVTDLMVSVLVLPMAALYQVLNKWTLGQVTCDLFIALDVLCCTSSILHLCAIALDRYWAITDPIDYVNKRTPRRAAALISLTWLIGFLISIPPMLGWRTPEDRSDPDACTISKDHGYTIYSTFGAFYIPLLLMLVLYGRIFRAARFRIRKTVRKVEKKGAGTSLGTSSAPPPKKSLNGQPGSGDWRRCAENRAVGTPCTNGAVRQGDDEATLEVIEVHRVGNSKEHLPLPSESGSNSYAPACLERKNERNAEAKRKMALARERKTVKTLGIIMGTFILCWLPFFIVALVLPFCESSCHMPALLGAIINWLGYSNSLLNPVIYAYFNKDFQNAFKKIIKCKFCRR
# [5] = target: 5-hydroxytryptamine receptor 2A (Rattus norvegicus, UniProt P14842); assay: Binding affinity to Wistar rat cortex membrane homogenate 5-HT2A receptor incubated for 90 mins by liquid scintillation counter analysis; format: cell membranes
# [6] = plasma, 10 min
# Description: Drug metabolism in plasma (unknown origin) assessed as parent compound remaining by measuring total radioactivity at 10 mins by HPLC analysis
# [7] = Drug uptake in cynomolgus monkey brain treated with WAY-100635 followed by compound 230 Ci/mmol, iv measured at 2.5 mins postinjection by PET imaging relative to control; format: ADME, organism-based, Macaca fascicularis; conditions: in vivo
# [8] = target: 5-hydroxytryptamine receptor 1A (Homo sapiens) (UniProt P08908); assay: Binding affinity to 5-HT1A receptor (unknown origin); conditions: filed as agonist
# [9] = target: T3, 5-hydroxytryptamine receptor 2C (Homo sapiens, UniProt P28335); assay: Binding affinity to human 5-HT2C assessed as inhibition constant
# T3 sequence (P28335 whole entry): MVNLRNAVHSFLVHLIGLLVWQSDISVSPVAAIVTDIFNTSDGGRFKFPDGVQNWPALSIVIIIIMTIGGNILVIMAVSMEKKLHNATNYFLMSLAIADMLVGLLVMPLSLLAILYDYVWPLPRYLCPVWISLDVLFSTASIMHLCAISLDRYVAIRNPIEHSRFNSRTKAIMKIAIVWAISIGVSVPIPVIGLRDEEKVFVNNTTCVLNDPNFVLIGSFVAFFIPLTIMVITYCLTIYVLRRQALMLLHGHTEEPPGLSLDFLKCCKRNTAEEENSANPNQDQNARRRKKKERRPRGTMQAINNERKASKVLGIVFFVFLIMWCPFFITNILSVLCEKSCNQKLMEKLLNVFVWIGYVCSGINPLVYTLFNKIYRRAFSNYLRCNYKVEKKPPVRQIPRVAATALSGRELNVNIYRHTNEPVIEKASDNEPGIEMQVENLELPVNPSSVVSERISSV
# [10] = Drug uptake in plasma (unknown origin) as parent compound by measuring radioactivity at 30 mins postinjection relative to control; format: ADME, organism-based; conditions: in vivo, 0.5 h
# [11] = target: T1, 5-hydroxytryptamine receptor 1A; remark: listed apart in the source
# [12] = Ratio of drug distribution in rat hippocampus to cerebellum at 30 mins postinjection; format: ADME, organism-based; conditions: in vivo, 0.5 h
# [13] = target: T1, 5-hydroxytryptamine receptor 1A; assay: Binding affinity to human recombinant 5-HT1A expressed in CHO cells assessed as inhibition constant; format: cell-based
# [14] = target: T4, 5-hydroxytryptamine receptor 7 (Homo sapiens, UniProt P34969); assay: Binding affinity to human recombinant 5-HT7 receptor expressed in CHO cells assessed as inhibition constant; format: cell-based
# [15] = Ratio of drug uptake in cynomolgus monkey cingulate gyrus to cerebellum measured at 87.5 mins postinjection; format: ADME, organism-based, Macaca fascicularis; conditions: in vivo, 1.458 h
# [16] = Drug uptake in cynomolgus monkey in brain administered IV measured at 7.5 mins relative to control; format: ADME, tissue-based, Macaca fascicularis; conditions: in vivo, 0.125 h
# [17] = Drug metabolism in plasma (unknown origin) assessed as parent compound remaining measured at 55 mins relative to control; format: ADME; conditions: read-out: Stability
# [18] = Ratio of drug distribution in cynomolgus monkey hippocampus to cerebellum measured at 30 mins postinjection; format: ADME, organism-based, Macaca fascicularis; conditions: in vivo, 0.5 h
# [19] = Ratio of drug biodistribution in rat hippocampus to cerebellum at 30 mins postinjection; format: ADME, organism-based; conditions: in vivo, 0.5 h
# [20] = target: Serotonin 3 (5-HT3) receptor
# Description: Inhibition of 5HT3 receptor (unknown origin)
# [21] = Ratio of drug uptake in baboon hippocampus to cerebellum; format: ADME, tissue-based, Papio; conditions: in vivo
# [22] = Ratio of drug uptake in baboon cingulate cortex to cerebellum; format: ADME, tissue-based, Papio; conditions: in vivo
# [23] = Ratio of drug uptake in baboon insula to cerebellum; format: ADME, tissue-based, Papio; conditions: in vivo
# [24] = Drug uptake in cynomolgus monkey brain treated with WAY-100635 followed by compound 878 Ci/mmol, iv measured at 2.5 mins postinjection by PET imaging relative to control; format: ADME, organism-based, Macaca fascicularis; conditions: in vivo
# [25] = target: 5-hydroxytryptamine receptor 2A (Homo sapiens, UniProt P28223); assay: Binding affinity to human 5-HT2A transfected in human tsA201 cells assessed as inhibition constant incubated for 2 hrs by scintillation counter analysis; format: cell-based
# [26] = target: T5, Alpha-1A adrenergic receptor (Homo sapiens, UniProt P35348); assay: Inhibition of alpha 1A adrenergic receptor (unknown origin)
# T5 sequence (P35348 whole entry): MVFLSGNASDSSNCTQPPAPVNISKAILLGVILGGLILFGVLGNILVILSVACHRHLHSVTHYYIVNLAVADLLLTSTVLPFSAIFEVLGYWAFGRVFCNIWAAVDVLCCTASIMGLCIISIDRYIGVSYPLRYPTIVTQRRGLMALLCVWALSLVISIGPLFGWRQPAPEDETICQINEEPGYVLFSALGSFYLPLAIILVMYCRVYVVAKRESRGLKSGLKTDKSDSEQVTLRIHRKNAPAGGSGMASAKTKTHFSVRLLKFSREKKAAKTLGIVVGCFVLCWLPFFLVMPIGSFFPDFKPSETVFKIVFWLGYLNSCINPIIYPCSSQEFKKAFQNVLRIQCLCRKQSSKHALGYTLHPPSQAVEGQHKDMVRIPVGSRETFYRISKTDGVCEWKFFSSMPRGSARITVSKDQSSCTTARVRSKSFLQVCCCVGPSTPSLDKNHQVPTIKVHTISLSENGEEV
# [27] = target: Alpha-1A adrenergic receptor (Homo sapiens) (UniProt P35348); assay: Binding affinity to alpha 1A adrenergic receptor (unknown origin); conditions: filed as antagonist
# [28] = target: T2, 5-hydroxytryptamine receptor 1A; assay: Displacement of [3H]-8-OH-DPAT from rat hippocampal membrane 5HT1A receptor by CEREP assay; format: cell membranes, Hippocampus
# [29] = target: T4, 5-hydroxytryptamine receptor 7; assay: Binding affinity to human recombinant 5-HT7 receptor assessed as inhibition constant
# T4 sequence (P34969 whole entry): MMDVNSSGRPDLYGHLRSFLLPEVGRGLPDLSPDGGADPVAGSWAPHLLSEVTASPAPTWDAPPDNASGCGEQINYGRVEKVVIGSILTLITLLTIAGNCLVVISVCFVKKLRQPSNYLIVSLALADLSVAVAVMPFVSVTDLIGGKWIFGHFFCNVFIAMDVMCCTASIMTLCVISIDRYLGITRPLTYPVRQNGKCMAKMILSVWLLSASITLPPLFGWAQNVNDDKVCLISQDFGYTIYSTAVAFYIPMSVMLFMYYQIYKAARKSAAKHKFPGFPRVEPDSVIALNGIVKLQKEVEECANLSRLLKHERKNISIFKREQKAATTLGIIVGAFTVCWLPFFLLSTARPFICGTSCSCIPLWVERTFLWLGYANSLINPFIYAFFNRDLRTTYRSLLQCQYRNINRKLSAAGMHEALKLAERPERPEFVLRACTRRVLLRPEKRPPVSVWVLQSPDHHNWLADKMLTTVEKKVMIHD
# Chain of 5-hydroxytryptamine receptor 1D (P28221 whole entry): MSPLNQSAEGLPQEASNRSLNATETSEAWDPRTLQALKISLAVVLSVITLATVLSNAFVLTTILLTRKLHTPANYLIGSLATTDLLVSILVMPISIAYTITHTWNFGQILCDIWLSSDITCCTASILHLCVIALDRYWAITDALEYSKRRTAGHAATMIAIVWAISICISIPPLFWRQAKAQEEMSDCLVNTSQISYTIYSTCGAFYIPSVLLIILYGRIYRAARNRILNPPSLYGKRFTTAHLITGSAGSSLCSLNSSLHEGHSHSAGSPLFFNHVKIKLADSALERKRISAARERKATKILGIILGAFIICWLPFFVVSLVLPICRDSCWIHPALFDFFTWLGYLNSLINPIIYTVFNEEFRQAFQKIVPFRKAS
# Chain of 5-hydroxytryptamine receptor 2A (Rattus norvegicus, UniProt P14842) (P14842 whole entry): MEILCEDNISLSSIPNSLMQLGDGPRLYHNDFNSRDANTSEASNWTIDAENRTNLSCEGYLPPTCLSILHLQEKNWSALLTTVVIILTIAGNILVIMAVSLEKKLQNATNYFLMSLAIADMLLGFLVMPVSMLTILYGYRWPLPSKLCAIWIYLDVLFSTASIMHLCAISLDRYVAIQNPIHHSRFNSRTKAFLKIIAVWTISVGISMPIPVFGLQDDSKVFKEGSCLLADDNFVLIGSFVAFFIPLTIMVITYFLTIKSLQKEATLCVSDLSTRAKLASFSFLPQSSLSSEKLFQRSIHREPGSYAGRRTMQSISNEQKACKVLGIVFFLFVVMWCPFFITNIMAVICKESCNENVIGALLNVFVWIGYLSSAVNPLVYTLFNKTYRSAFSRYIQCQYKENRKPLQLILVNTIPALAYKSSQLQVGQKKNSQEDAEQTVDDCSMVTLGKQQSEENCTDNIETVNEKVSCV
# Chain of 5-hydroxytryptamine receptor 2A (Homo sapiens, UniProt P28223) (P28223 whole entry): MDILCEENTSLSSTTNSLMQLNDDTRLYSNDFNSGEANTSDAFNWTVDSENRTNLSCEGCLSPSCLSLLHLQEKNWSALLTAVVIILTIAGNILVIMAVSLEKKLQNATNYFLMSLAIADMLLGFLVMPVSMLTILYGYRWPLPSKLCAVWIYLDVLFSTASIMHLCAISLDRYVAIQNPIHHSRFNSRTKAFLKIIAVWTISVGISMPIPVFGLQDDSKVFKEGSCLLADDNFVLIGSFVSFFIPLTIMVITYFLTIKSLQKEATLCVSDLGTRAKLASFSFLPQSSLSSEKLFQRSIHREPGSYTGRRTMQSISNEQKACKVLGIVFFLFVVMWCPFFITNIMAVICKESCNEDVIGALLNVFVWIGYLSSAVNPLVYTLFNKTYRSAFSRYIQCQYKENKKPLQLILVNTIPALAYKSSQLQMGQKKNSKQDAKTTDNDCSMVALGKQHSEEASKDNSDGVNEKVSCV
# Chain of 5-hydroxytryptamine receptor 2B (P41595 whole entry): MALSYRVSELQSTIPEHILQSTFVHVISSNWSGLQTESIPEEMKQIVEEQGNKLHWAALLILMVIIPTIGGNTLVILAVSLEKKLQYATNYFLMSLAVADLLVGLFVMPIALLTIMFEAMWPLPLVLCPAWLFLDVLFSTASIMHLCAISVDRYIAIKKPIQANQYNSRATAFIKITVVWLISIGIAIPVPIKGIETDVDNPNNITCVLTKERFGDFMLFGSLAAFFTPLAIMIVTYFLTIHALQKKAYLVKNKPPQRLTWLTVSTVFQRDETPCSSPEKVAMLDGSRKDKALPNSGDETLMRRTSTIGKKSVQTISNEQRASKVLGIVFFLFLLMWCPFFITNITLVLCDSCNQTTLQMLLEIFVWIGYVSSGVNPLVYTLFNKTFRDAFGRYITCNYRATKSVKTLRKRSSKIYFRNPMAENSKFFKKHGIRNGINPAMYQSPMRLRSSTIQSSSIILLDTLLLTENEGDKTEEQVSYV
structure (smiles),measurement,setting,value
COc1ccccc1N1CCN(CC[C@@H](C(=O)N2CCCCCC2)c2ccccc2)CC1,Ki,[1],9.5 nM
same,Ki,[2],7.2 nM
same,Ki,[3],0.6 nM
Cc1ccc2c(c1O)-c1cccc3c1C(C2)N(C)CC3 (configuration not stated),Ki,[4],0.45 nM
[O-][S+](c1ccc(F)cc1)C1CCN(CCc2ccc(F)cc2F)CC1 (configuration not stated),Ki,[5],198 nM
O=[11C](C1CCCCC1)N(CCN1CCN(c2ccccc2O)CC1)c1ccccn1,Stability,[6],< 10%
COc1ccccc1N1CCN(CC(C)N(c2ccccn2)[11C](=O)C2CCCCC2)CC1 (racemic),Drug uptake,[7],4.8%
same,Ki,[3],0.91 nM
COc1ccccc1N1CCN(CC(O)COc2cccc3c2SCCC3)CC1 (configuration not stated),K,[8],5 nM
COc1c(OCCF)cccc1[C@H](O)C1CCN(CCc2ccc(F)cc2)CC1,Ki,[9],71 nM
COc1ccccc1N1CCN(CCN(C(=O)c2ccc([18F])cc2)c2ccccn2)CC1,Drug uptake,[10],20%
same,Kd,[11],0.34 nM
same,Ratio,[12],5.6
COc1ccccc1N1CCN(CCC[C@H]2CCCN2S(=O)(=O)c2ccccc2F)CC1,Ki,[13],4.1 nM
same,Ki,[14],1.9 nM
[11CH3]Oc1ccccc1N1CCN(CC[C@@H](C(=O)N2CCCCCC2)c2ccccc2)CC1,Ratio,[15],6.4
COc1ccccc1N1CCN(CCN(C(=O)C2CCCCC2)c2cccc([18F])n2)CC1,Drug uptake,[16],4.33%
same,remaining at 55 min,[17],20%
same,Ratio,[18],1.4
COc1ccccc1N1CCN(CCN(C(=O)c2ccc([18F])cc2)c2ncccn2)CC1,Ratio,[19],5.5
same,Ki,[3],< 1 nM
CN1CCN(c2ccc3ccccc3n2)CC1,IC50,[20],4.7 nM
Cn1c(=O)cnn(CCCCN2CCN(c3ccccc3O[11CH3])CC2)c1=O,Ratio,[21],> 4.7
same,Ratio,[22],> 4.7
same,Ratio,[23],> 4.7
CC1(C(=O)N(CCN2CCN(c3ccccc3O[11CH3])CC2)c2ccccn2)CCCCC1,Drug uptake,[24],3%
same,Ki,[3],2.3 nM
COc1cc(Br)c(OCC[18F])cc1CCNCc1ccccc1OC,Ki,[25],< 1.2 nM
[11CH3]Oc1cccc2c1CCCC2CCCN1CCN(c2ccccc2)CC1 (configuration not stated),IC50,[26],43 nM
COc1ccccc1N1CCN(CCCCn2ccnc2SC)CC1,K,[27],3 nM
same,IC50,[28],0.58 nM
Cc1ccc(N2CCN(CCCCC3C(=O)Nc4ccccc43)CC2)cc1 (configuration not stated),Ki,[29],1.1 nM
